We go through 15 molecules from patent EP4741383A1, “COMPOUND AND USE THEREOF AS ANTI-CANCER DRUG” (Tyligand Bioscience (Shanghai) Limited, priority 2023, dated 2025).

Structures are written as SMILES.

The target in the first test is T1, SHP2 enzyme (catalytic domain, amino acid sequence 224-528) (Homo sapiens, UniProt Q06124).
T1 construct: purchased GenScript
T1 sequence (Q06124 224-528): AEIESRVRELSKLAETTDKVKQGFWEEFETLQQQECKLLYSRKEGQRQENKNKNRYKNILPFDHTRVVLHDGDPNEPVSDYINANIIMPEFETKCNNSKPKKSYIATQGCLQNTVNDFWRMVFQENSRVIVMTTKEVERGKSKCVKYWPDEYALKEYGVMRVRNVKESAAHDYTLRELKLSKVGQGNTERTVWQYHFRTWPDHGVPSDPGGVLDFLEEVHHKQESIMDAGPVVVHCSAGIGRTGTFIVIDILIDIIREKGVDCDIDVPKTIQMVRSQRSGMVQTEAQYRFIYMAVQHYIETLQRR
In words: SHP2 enzyme inhibition assay (DiFMUP substrate, fluorescence). The class given is biochemical. The following applies: SHP2 catalytic domain, DiFMUP substrate, 30 min pre-incubation; read-out: S HP2 I C50. The gist of the method: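 SHP2 catalytic domain (aa 224-528) preincubated 30 min at room temperature with compounds (10-point 3-fold series) in HEPES pH 7.2 buffer with NaCl, EDTA, DTT, BSA, Brij35. DiFMUP from 50 µM working solution added, 5 min reaction; fluorescence 340/450 nm; IC50 from nonlinear dose-response fit.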
With `O=C(Nc1ccc(-c2csc(CO)c2)cc1)C(=O)Nc1ccc(-c2cc3cc(F)c(-c4nnn[nH]4)cc3n2C2CCC2)cc1` [Example 1], the IC50 worked out at 66 nM.

With `O=C(Nc1ccc(-c2cc3cc(F)c(-c4nnn[nH]4)cc3n2C2CCC2)cc1)C(=O)Nc1ccc(N2CC3CC(O)CC3C2)cc1` (stereo not shown) [Example 116], the IC50 came to 63 nM.

In the case of `O=C(Nc1ccc(-c2cc3cc(F)c(-c4nnn[nH]4)cc3n2C2CCC2)cc1)C(=O)Nc1ccc(N2CCC(CO)C2)cc1` (stereo not shown) [Example 12], the IC50 turned out to be 48 nM.

Take `CC1(O)CC2CN(c3ccc(NC(=O)C(=O)Nc4ccc(-c5cc6cc(F)c(-c7nnn[nH]7)cc6n5C5(C)CCC5)cc4)cc3)CC2C1` (stereo not shown) [Example 118]: the IC50 came to 45 nM.

For `O=C(Nc1ccc(-c2cc3cc(F)c(-c4nnn[nH]4)cc3n2C2CCC2)cc1)C(=O)Nc1ccc(N2CC3(CCOCC3)C2)cc1` [Example 57], the IC50 is 68 nM.

Regarding `O=C(Nc1ccc(-c2cc3cc(F)c(-c4nnn[nH]4)cc3n2C2CCC2)cc1)C(=O)Nc1ccc(N2CCC3(CCC(O)C3)C2)cc1` (stereo not shown) [Example 92], the IC50 was determined as 51 nM.

Regarding `CC1(n2c(-c3ccc(NC(=O)C(=O)Nc4ccc(-c5cnn(C6CCOCC6)c5)cc4)cc3)cc3cc(F)c(-c4nnn[nH]4)cc32)CC1` [Example 7], the IC50 is 49 nM.

For the molecule `CC1(O)CC2(CCN(c3ccc(NC(=O)C(=O)Nc4ccc(-c5cc6cc(F)c(-c7nnn[nH]7)cc6n5C5(C)CCC5)cc4)cc3)CC2)C1` [Example 95], the IC50 was 61 nM.

As to `O=C(Nc1ccc(-c2cc3cc(F)c(-c4nnn[nH]4)cc3n2C2CCC2)cc1)C(=O)Nc1ccc(N2CC3COCC3C2)cc1` (stereo not shown) [Example 114], the IC50 is 72 nM.

Take `O=C(Nc1ccc(-c2cc3cc(F)c(-c4nnn[nH]4)cc3n2C2CCC2)cc1)C(=O)Nc1ccc(N2CC3(CCCOC3)C2)cc1` [Example 55]: the IC50 turned out to be 45 nM.

On to `Cn1cc(-c2ccc(NC(=O)C(=O)Nc3ccc(-c4cc5cc(F)c(-c6nnc(C(F)(F)F)[nH]6)cc5n4C4CCC4)cc3)cc2)cn1` [Example 124], for which the IC50 worked out at 716 nM.

As to `CC1(n2c(-c3ccc(NC(=O)C(=O)Nc4ccc(N5CCC6(CCOCC6)CC5)cc4)cc3)cc3cc(F)c(-c4nnn[nH]4)cc32)CCC1` [Example 77], the IC50 is 20 nM.

For `CC1(O)CCC2(CCN(c3ccc(NC(=O)C(=O)Nc4ccc(-c5cc6cc(F)c(-c7nnn[nH]7)cc6n5C5CCC5)cc4)cc3)CC2)CC1` [Example 110], the IC50 is 77 nM.

In the case of `CC1(n2c(-c3ccc(NC(=O)C(=O)Nc4ccc(N5CCC6(CCOC6)CC5)cc4)cc3)cc3cc(F)c(-c4nnn[nH]4)cc32)CC1` [Example 70], the IC50 is 50 nM.

Regarding `O=C(Nc1ccc(-c2cc3cc(F)c(-c4nnn[nH]4)cc3n2C2CCC2)cc1)C(=O)Nc1ccc(N2CCC(CCO)CC2)cc1` [Example 25], the IC50 was determined as 59 nM.

The same test, now with this note: relative to 11a-1, IC50 = 0.108 µM.
As to `CC1(n2c(-c3ccc(NC(=O)C(=O)Nc4ccc(N5CCC6(CCOCC6)CC5)cc4)cc3)cc3cc(F)c(-c4nnn[nH]4)cc32)CCC1` [Example 77], the “SHP2 IC50 times lower than control compound 11a-1” value is given as 3-4 times.

For another test, the system named is KYSE520. In words: CellTiter-Glo cell proliferation inhibition, KYSE520. The format is cell-based, human. The following applies: Homo sapiens, KYSE-520; KYSE520 cells, 120 hours, CellTiter-Glo. The source says: In this study, the CellTiter-Glo® Luminescent Cell Viability Assay kit from Promega was used to evaluate the inhibitory effects of the disclosed compounds on the proliferation of cell lines KYSE520 (a human esophageal squamous cell carcinoma cell line dependent on SHP2 for growth), MeWo (a human malignant melanoma cell line), and MV4-11 (an RTK-mutant human acute monocytic leukemia cell line).
KYSE520 cells (Nanjing Kebaio Biotechnology Co., Ltd., Catalog #CBP60658) were thawed by rapidly shaking the cryovial in a 37 °C water bath to thaw within 1 minute. The thawed cell suspension was mixed homogeneously with RPMI 1640 medium (HyClone, Catalog #SH30027.01) containing 10% FBS (ExCell, Catalog #FND500), centrifuged at 1000 rpm for 5 minutes, and the supernatant was discarded. The cell pellet was resuspended in 5 mL of complete culture medium (RPMI 1640 medium containing 10% FBS) and placed in a cell culture flask with 25 cm^2 of bottom area, then cultured in a cell culture incubator at 37 °C, 95% humidity, and 5% CO2. Cell passaging was performed when the cell confluence reached approximately 80%. During cell passaging, the old culture medium was discarded, the cells were washed once with DPBS (Thermo Fisher, Catalog #14190-144), and 1 mL of trypsin (Thermo Fisher, Catalog #25200072) was added to digest the cells. When the cells dispersed into single cells and detached from the bottom of the culture flask, 3 mL of fresh complete culture medium was added to stop the digestion. After gently pipetting the cell suspension, 1/5 of the cell suspension was retained, 5 mL of fresh complete culture medium was added, and after mixing, the cells were placed in a cell culture flask for further culture. Cell plating was performed when the cell confluence again reached approximately 80%. During cell plating, following the cell passaging method, 1/5 of the cell suspension was retained for continued culture, and the remaining 4/5 of the cell suspension was placed in a 15 mL centrifuge tube. Cell viability was determined using the trypan blue exclusion method to ensure that cell viability was above 90%. A cell suspension with a density of 2.22 × 10^4 cells/mL was prepared using complete culture medium, and 135 µL of the cell suspension was added to a 96-well transparent flat-bottom black-walled cell culture plate (Greiner, Catalog #655090), resulting in a cell density of 3000 viable cells per well. A control group containing only complete culture medium without cells and compounds (i.e., culture medium control) and a control group containing cells but no compound (i.e., cell control) were set up. The cell plates were incubated overnight in a cell culture incubator. First, a 10 mM stock solution of the compound (Example compound and positive control compound 11a-1) in DMSO (Damas-beta, catalog #75927R) was serially diluted 3-fold to the 9th concentration, and a 10th concentration containing only DMSO (without compound) was also prepared as a control. Then, the DMSO solutions containing different concentrations of the compound were diluted 100-fold with complete culture medium, resulting in a 1% DMSO concentration in each solution. Finally, 15 µL of each solution was added to the corresponding wells of the cell culture plate, resulting in a starting compound concentration of 10 µM, with a 3-fold dilution between adjacent concentrations, and a final DMSO concentration of 0.1% in the cell culture plate. The cell plates were then incubated in the cell culture incubator for another 120 hours.
For endpoint detection, CellTiter-Glo reagent (Promega, catalog number #G7573, CellTiter-Glo® Luminescent Cell Viability Assay Kit) was melt and each cell plate was moved to room temperature for equilibration for 30 minutes. 75 µL (KYSE520 cells) or 50 µL (MeWo cells and MV 4-11 cells) of CellTiter-Glo was added to each well of the corresponding cell plate. The plates were shaken on a track-mounted shaker for 2 minutes to fully lyse the cells. […]
In turn, `O=C(Nc1ccc(-c2csc(CO)c2)cc1)C(=O)Nc1ccc(-c2cc3cc(F)c(-c4nnn[nH]4)cc3n2C2CCC2)cc1` [Example 1] showed an IC50 of 0.095 µM.

As to `O=C(Nc1ccc(-c2cc3cc(F)c(-c4nnn[nH]4)cc3n2C2CCC2)cc1)C(=O)Nc1ccc(N2CC3CC(O)CC3C2)cc1` (stereo not shown) [Example 116], the IC50 was 0.092 µM.

`O=C(Nc1ccc(-c2cc3cc(F)c(-c4nnn[nH]4)cc3n2C2CCC2)cc1)C(=O)Nc1ccc(N2CCC(CO)C2)cc1` (stereo not shown) [Example 12] came in with an IC50 of 0.121 µM.

Regarding `CC1(O)CC2CN(c3ccc(NC(=O)C(=O)Nc4ccc(-c5cc6cc(F)c(-c7nnn[nH]7)cc6n5C5(C)CCC5)cc4)cc3)CC2C1` (stereo not shown) [Example 118], the IC50 came out at 0.116 µM.

In turn, `O=C(Nc1ccc(-c2cc3cc(F)c(-c4nnn[nH]4)cc3n2C2CCC2)cc1)C(=O)Nc1ccc(N2CC3(CCOCC3)C2)cc1` [Example 57] returned an IC50 of 0.164 µM.

Regarding `O=C(Nc1ccc(-c2cc3cc(F)c(-c4nnn[nH]4)cc3n2C2CCC2)cc1)C(=O)Nc1ccc(N2CCC3(CCC(O)C3)C2)cc1` (stereo not shown) [Example 92], the IC50 was 0.13 µM.

As to `CC1(n2c(-c3ccc(NC(=O)C(=O)Nc4ccc(-c5cnn(C6CCOCC6)c5)cc4)cc3)cc3cc(F)c(-c4nnn[nH]4)cc32)CC1` [Example 7], the IC50 worked out at 0.071 µM.

`CC1(O)CC2(CCN(c3ccc(NC(=O)C(=O)Nc4ccc(-c5cc6cc(F)c(-c7nnn[nH]7)cc6n5C5(C)CCC5)cc4)cc3)CC2)C1` [Example 95]: the IC50 amounted to 0.113 µM.

In turn, `O=C(Nc1ccc(-c2cc3cc(F)c(-c4nnn[nH]4)cc3n2C2CCC2)cc1)C(=O)Nc1ccc(N2CC3COCC3C2)cc1` (stereo not shown) [Example 114] came in with an IC50 of 0.118 µM.

In the case of `O=C(Nc1ccc(-c2cc3cc(F)c(-c4nnn[nH]4)cc3n2C2CCC2)cc1)C(=O)Nc1ccc(N2CC3(CCCOC3)C2)cc1` [Example 55], the IC50 came out at 0.108 µM.

For `Cn1cc(-c2ccc(NC(=O)C(=O)Nc3ccc(-c4cc5cc(F)c(-c6nnc(C(F)(F)F)[nH]6)cc5n4C4CCC4)cc3)cc2)cn1` [Example 124], the IC50 is 0.661 µM.

The molecule `CC1(n2c(-c3ccc(NC(=O)C(=O)Nc4ccc(N5CCC6(CCOCC6)CC5)cc4)cc3)cc3cc(F)c(-c4nnn[nH]4)cc32)CCC1` [Example 77] had an IC50 of 0.049 µM.

The molecule `CC1(O)CCC2(CCN(c3ccc(NC(=O)C(=O)Nc4ccc(-c5cc6cc(F)c(-c7nnn[nH]7)cc6n5C5CCC5)cc4)cc3)CC2)CC1` [Example 110] registered an IC50 of 0.109 µM.

`CC1(n2c(-c3ccc(NC(=O)C(=O)Nc4ccc(N5CCC6(CCOC6)CC5)cc4)cc3)cc3cc(F)c(-c4nnn[nH]4)cc32)CC1` [Example 70]: the IC50 worked out at 0.085 µM.

With `O=C(Nc1ccc(-c2cc3cc(F)c(-c4nnn[nH]4)cc3n2C2CCC2)cc1)C(=O)Nc1ccc(N2CCC(CCO)CC2)cc1` [Example 25], the IC50 is 0.056 µM.
